The text below walks through data of patent US20250042866A1, “CRYSTAL FORM OF BLARCAMESINE HYDROCHLORIDE, METHOD FOR PREPARING SAME, AND USE THEROF” (CRYSTAL PHARMACEUTICAL (SUZHOU) CO., LTD., priority 2022, published 2025).

Entries after “also recorded” stand apart in the source; their conditions may differ.

Common to all, as to type: physicochemical
Series [1] can be described thus: Stability upon mechanical force: ball milling. The note with it: XRPD.
Series [2] can be described thus: Flowability (compressibility index / Carr index). The note with it: criteria of ICH Q4B Annex 13, by compressibility index. Here is the method:
The bulk density ρ0 was calculated with the formula “bulk density ρ0=powder mass/volume before tapped”. […] The tapped density pf was calculated with the formula “tapped density ρf=powder mass/volume after tapped”. The degree of compression (c), also known as Compressibility index or Carr index, was calculated based on the measured bulk density and tap density of the sample with the formula c=(ρf-ρ0)/ρf*100%.
The bulk density ρ0 was calculated with the formula “bulk density ρ0=powder mass/volume before tapped”. […] The tapped density pf was calculated with the formula “tapped density ρf=powder mass/volume after tapped”. The degree of compression (c), also known as Compressibility index or Carr index, was calculated based on the measured bulk density and tap density of the sample with the formula c=(pf-ρ0)/ρf*100%.

A short description of series [3]: Light stability (HPLC purity and XRPD form). The note with it: for Initial purity: before light exposure; for Purity / Solid form: light 8 k Lux, UV 1.5 w/m^2, 2 weeks; for Purity: HPLC; for Solid form: XRPD. From the text: An appropriate amount of Form CSIV of the present disclosure was placed in a light stability chamber with the following setting values: light: 8 k Lux, UV: 1.5 w/m^2.

The nature of series [4]: Compressibility: tensile strength of compressed tablets. The conditions noted are these: 80 mg, Φ6 mm round tooling, 3 kN, after 24 hours at room temperature; T=2H/πDL. Here is the method: The samples were pressed by the ENERPAC single punch manual tablet press. […] The elastic recovery was completed after storage at room temperature for 24 hours, then the diameter (D) and thickness (L) of the tablet was measured by a caliper, and the hardness (H) was tested with a tablet hardness tester. Tensile strength of the powder was calculated with the following formula: T=2H/πDL. Under a certain force, the greater the tensile strength, the better the compressibility.

Series [5] can be described thus: Storage stability of drug substance (HPLC purity and XRPD form). The conditions noted are these: for chemical purity during storage: 40° C./75% RH and 60° C./75% RH. On the procedure: Chemical purity and crystalline form were tested by HPLC and XRPD respectively.
Open: the sample was placed into a glass vial, and the vial was covered by aluminum foil with holes.
Sealed with desiccants: the sample was placed into a glass vial, and the vial was covered by aluminum foil with holes, then the vial was sealed into an aluminum foil bag with 1 g of silica gel desiccant.
An appropriate amount of Form CSIV of the present disclosure were stored under different conditions of 25° C./60% RH, 40° C./75% RH and 60° C./75% RH. Chemical purity and crystalline form were test by HPLC and XRPD respectively. […] Form CSIV is stable after storage under 40° C./75% RH condition for at least 6 months, indicating Form CSIV has good stability under accelerated condition. Form CSIV is stable after storage under 60° C./75% RH condition for at least 2 weeks, indicating Form CSIV has good stability under stress condition.

Series [6] in a line: Stability upon mechanical force: tableting under different pressures. The conditions noted are these: XRPD. Here is the method: An appropriate amount of Form CSII was compressed into tablets under different pressures with suitable tableting die. Crystalline form before and after tableting were tested by XRPD.
An appropriate amount of Form CSIII was compressed into tablets under different pressures with suitable tableting die. Crystalline form before and after tableting were tested by XRPD.

The nature of series [7]: Crystalline form stability in the formulation process. The conditions noted are these: dry granulation simulation 5 ± 1 kN, blending, capsule filling; XRPD.
Series [8] in a line: Hygroscopicity by dynamic vapor sorption (DVS). The conditions noted are these: 25° C., cycle 0% RH-95% RH-0% RH, about 10 mg. On the procedure: DVS data in the present disclosure were measured via an SMS (Surface Measurement Systems Ltd.) intrinsic DVS instrument. The instrument control software is DVS-Intrinsic control software. Typical Parameters for DVS test are as follows: • Temperature: 25° C. • Gas and flow rate: N2, 200 mL/min • RH range: 0% RH to 95% RH
The mass change at each relative humidity were recorded in a cycle of 0% RH-95% RH-0% RH.

Series [9] is described as follows: Solubility in organic solvents, step-wise solvent addition. The note with it: organic solvent or mixture, thermodynamic from solid; Ethyl acetate; room temperature; as mass of Compound I. Here is the method: (§1) The weight of solid (m), the undissolved volume (v1) and the dissolved volume (v2) were recorded respectively.
as §1

The mark [10] stands for this setting: 5 minutes at a vibration speed of 500 rpm.
Where [11] appears, read: 25° C./60% RH, long-term condition.
Where [12] appears, read: 25° C./60% RH, sealed with desiccants, 6 months.
The mark [13] stands for this setting: 40° C./75% RH, accelerated condition.
[14] abbreviates: 40° C./75% RH, sealed with desiccants, 6 months.
The mark [15] stands for this setting: 60° C./75% RH, sealed with desiccants, 2 weeks.
Setting [16] is: 60° C./75% RH, stress condition.
Where [17] appears, read: 25° C./60% RH, sealed with desiccants, 9 months.

In the case of `CN(C)CC1CCOC1(c1ccccc1)c1ccccc1.CN(C)CC1CCOC1(c1ccccc1)c1ccccc1.Cl.Cl.O=C(O)CC(O)C(=O)O` (racemic) [Form CSIV], the “form change after ball milling” value in series [1] (setting [10]) is reported as “no form change”. In series [2], the Flowability result is “Excellent (≤10)”. This compound also came in with an Initial purity in series [3] of 99.92%. For the same compound, the Purity in [3] is listed as 99.92%; in series [5] (setting [12]), 99.92%; in [5] (setting [14]), 99.93%; in series [5] (setting [15]) it was 99.98%; in series [5] (Initial) it was 99.95%. The Solid form entry in series [3] is “remains unchanged; also recorded: Form CSIV”; in series [5] (setting [12]), “Form CSIV”; in series [5] (setting [14]), “Form CSIV”; in [5] (setting [15]), “Form CSIV”; in [5] (Initial) it was “Form CSIV”. Also, the Tensile strength in series [4] worked out at 0.705 MPa. In addition, the “time for which the drug substance is stable (crystalline state unchanged)” value (from here on “time … (crystalline state unchanged)”) is recorded as “at least 6 months” in series [5] (setting [11]), “at least 6 months” in series [5] (setting [13]) and “at least 2 weeks” in series [5] (setting [16]). Moreover, the “chemical purity during storage” value in [5] is recorded as “above 99.9%”.

Turning to `CN(C)CC1CCOC1(c1ccccc1)c1ccccc1.Cl.O=C(O)CC(O)(CC(=O)O)C(=O)O` (centres unmarked) [Form CSIII], in series [1] (vibration speed of 300 rpm), the “form change after ball milling” value was “no form change”. The “Crystalline form after tableting” value in series [6] (Pressure 5 kN), in [6] (Pressure 10 kN) and in series [6] (Pressure 20 kN) was “Form CSIII” each time. For the same compound, the Flowability entry in series [2] was “Fair (16-20)”. This compound also came in with an Initial purity in [3] of 99.83%. Also, the Purity came to 99.76% in series [3]; 99.91% in [5] (25° C./60% RH, open, 9 months); 99.92% in [5] (setting [17]); 99.91% in series [5] (40° C./75% RH, sealed with desiccants, 3 months); 99.86% in series [5] (60° C./75% RH, sealed with desiccants, 2 months); 99.86% in series [5] (Initial). In addition, in [3], the Solid form result is given as “remains unchanged; also recorded: Form CSIII”. In [4], this compound returned a Tensile strength of 0.707 MPa. In addition, the entries for the “time … (crystalline state unchanged)” value in series [5] (setting [11]), in [5] (setting [13]) and in [5] (setting [16]) were “at least 9 months”, “at least 3 months” and “at least 2 month”, respectively. Also, the “chemical purity during storage” value in series [5] is listed as “above 99%”. The “crystalline form before and after the formulation process” value in series [7] was “stable before and after the formulation process”.

As for `CN(C)CC1CCOC1(c1ccccc1)c1ccccc1.CN(C)CC1CCOC1(c1ccccc1)c1ccccc1.Cl.Cl.O=C(O)C(O)C(O)C(=O)O` (centres unmarked) [Form CSII], the “form change after ball milling” value in series [1] (setting [10]) is “no form change”. Besides, the “Crystalline form after tableting” value in [6] (Pressure 5 kN), in series [6] (Pressure 10 kN) and in series [6] (Pressure 20 kN) was “Form CSII” each time. For the same compound, the Initial purity in series [3] stood at 99.97%. The Purity in [3] was 99.97%; in [5] (25° C./60% RH, open, 9 months) it was 99.90%; in series [5] (setting [17]), 99.95%; in [5] (setting [14]), 99.90%; in [5] (60° C./75% RH, sealed with desiccants, 1 month) it was 99.94%; in series [5] (Initial) it was 99.96%. Besides, in series [3], the Solid form result is “remains unchanged; also recorded: Form CSII”. For the same compound, the Tensile strength in [4] came out at 0.705 MPa. Besides, the “time … (crystalline state unchanged)” value is “at least 9 months” in series [5] (setting [11]) and “at least 6 months” in series [5] (setting [13]). In addition, in series [5], the “chemical purity during storage” value is recorded as “above 99.9%”. Besides, in series [8], the “Mass increase under 70% RH” value is listed as 0.24%. In addition, the “crystalline form before and after the formulation process” value in series [7] is “stable before and after the formulation process”.

On to `CN(C)CC1CCOC1(c1ccccc1)c1ccccc1` (centres unmarked) [Form I in the prior art, tetrahydro-N,N-dimethyl-2,2-diphenyl-3-furanmethanamine, reference compound], for which the Flowability result in series [2] is “Poor”. Also, the Tensile strength in series [4] worked out at 0.552 MPa. The “Mass increase under 70% RH” value in series [8] is recorded as 0.54%. Also, the solubility in series [9] is under 1500 µg/mL.

For orientation: solubility means the dissolved amount per volume that the medium holds.
